Patent US8357717B2, “Spiro group-containing amide compounds having bradykinin 1 receptor (B1R) activity” (Gruenenthal GmbH, priority 2009, dated 2013)

Key:
[1] = target: T1, human B1R receptor (hB1R) (Homo sapiens, UniProt P46663); assay: FLIPR Ca2+ functional study on bradykinin receptor 1, hB1R cells (CHO K1); type: cell-based; conditions: CHO K1 cells with human B1R, agonist Lys-Des-Arg9-bradykinin at EC80; for inhibition at 10 µM: CHO-K1, 10 μM test substance, read-out: B1R antagonism, human [10 μM] % inhibition; for B1R antagonism, human [10 μM] % inhibition: 10 μM test substance
T1 construct: expressed in transfected cells; host or cells: CHO K1 cells, stably transfected
T1 sequence (P46663 1-353): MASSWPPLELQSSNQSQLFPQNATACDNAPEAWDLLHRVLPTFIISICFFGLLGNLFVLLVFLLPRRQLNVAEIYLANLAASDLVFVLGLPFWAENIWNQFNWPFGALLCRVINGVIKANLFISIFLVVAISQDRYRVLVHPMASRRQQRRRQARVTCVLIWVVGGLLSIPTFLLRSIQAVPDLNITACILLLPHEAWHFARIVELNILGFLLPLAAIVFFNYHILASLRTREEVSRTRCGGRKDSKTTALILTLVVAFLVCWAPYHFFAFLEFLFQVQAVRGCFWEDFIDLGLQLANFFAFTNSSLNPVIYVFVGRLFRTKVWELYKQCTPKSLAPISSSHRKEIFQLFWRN
Method in brief: (§1)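 Stably transfected CHO K1 cells loaded with Fluo-4; FLIPR Ca2+ fluorescence (ex 488/em 540 nm, peak counts). Compounds (10 μM, or concentration series for IC50) preincubated 10–20 min, then EC80 agonist added (human: Lys-Des-Arg9-bradykinin; rat: Des-Arg9-bradykinin); % inhibition versus maximum achievable, n=2–3, N≥2.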

[2] = target: T2, B1R receptor of the rat (rB1R) (Rattus norvegicus, UniProt P97583); assay: FLIPR Ca2+ functional study on bradykinin receptor 1, rB1R cells (CHO K1); type: cell-based; conditions: 10 μM test substance, CHO K1 cells with rat B1R, agonist Des-Arg9-bradykinin at EC80; for inhibition at 10 µM: read-out: B1R antagonism, rat [10 μM] % inhibition
T2 construct: expressed in transfected cells; host or cells: CHO K1 cells, stably transfected
T2 sequence (P97583 1-337): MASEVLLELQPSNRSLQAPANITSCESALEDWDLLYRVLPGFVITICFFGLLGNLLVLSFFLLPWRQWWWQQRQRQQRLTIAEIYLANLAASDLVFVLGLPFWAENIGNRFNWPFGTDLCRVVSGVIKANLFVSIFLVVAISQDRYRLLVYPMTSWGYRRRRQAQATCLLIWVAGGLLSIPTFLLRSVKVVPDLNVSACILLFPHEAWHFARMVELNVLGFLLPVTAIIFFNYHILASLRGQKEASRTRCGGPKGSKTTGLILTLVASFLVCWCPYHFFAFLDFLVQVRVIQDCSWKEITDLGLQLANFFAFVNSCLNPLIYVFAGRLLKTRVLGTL
Method in brief: as §1

An inhibition at 10 µM [1] of 99% and an inhibition at 10 µM [2] of 70% were found for `O=C(c1ccc2c(c1)CN(C(=O)c1ccc(Cl)s1)C2)N1CCC2(CC1)CCN(c1ccncc1)CC2` [Compound G-69, [2-(5-Chloro-thiophene-2-carbonyl)-2,3-dihydro-1H-isoindol-5-yl]-(9-pyridin-4-yl-3,9-diazaspiro[5.5]undecan-3-yl)-methanone] in this work.

An inhibition at 10 µM [1] of 88% and an inhibition at 10 µM [2] of 101% were found for `COc1cc(C)c(S(=O)(=O)N2CCCc3ccc(CC(=O)N4CCC5(CC4)CCN(c4ccncc4)CC5)nc32)c(C)c1` [Compound G-70, 2-[8-[(4-Methoxy-2,6-dimethyl-phenyl)sulfonyl]-5,6,7,8-tetrahydro-[1,8]naphthyridin-2-yl]-1-(9-pyridin-4-yl-3,9-diazaspiro[5.5]undecan-3-yl)-ethanone] in this work.

An inhibition at 10 µM [1] of 91% and an inhibition at 10 µM [2] of 80% were found for `O=C(c1cn2c(n1)CN(C(=O)c1ccc(Cl)s1)CC2)N1CCC2(CC1)CCN(c1ccncc1)CC2` [Compound G-71, [7-(5-Chloro-thiophene-2-carbonyl)-5,6,7,8-tetrahydro-imidazo[1,2-a]pyrazin-2-yl]-(9-pyridin-4-yl-3,9-diazaspiro[5.5]undecan-3-yl)-methanone] in this work.

An inhibition at 10 µM [1] of 100% and an inhibition at 10 µM [2] of 104% were found for `COc1cc(C)c(S(=O)(=O)N2CCn3cnc(C(=O)N4CCC5(CC4)CCN(c4ccncc4)CC5)c3C2)c(C)c1` [Compound G-72, [7-[(4-Methoxy-2,6-dimethyl-phenyl)sulfonyl]-5,6,7,8-tetrahydro-imidazo[1,5-a]pyrazin-1-yl]-(9-pyridin-4-yl-3,9-diazaspiro[5.5]undecan-3-yl)-methanone] in this work.

An inhibition at 10 µM [1] of 85% and an inhibition at 10 µM [2] of 13% were found for `COc1cc(C)c(C(=O)N2Cc3ccc(C(=O)N4CCC5(CC4)CCN(c4ccncc4)CC5)cc3C2)c(C)c1` [Compound G-73, [2-(4-Methoxy-2,6-dimethyl-benzoyl)-2,3-dihydro-1H-isoindol-5-yl]-(9-pyridin-4-yl-3,9-diazaspiro[5.5]undecan-3-yl)-methanone] in this work.

An inhibition at 10 µM [1] of 87% and an inhibition at 10 µM [2] of 99% were found for `Cc1cc(S(=O)(=O)N2CCc3ccc(C(=O)N4CCC5(CC4)CCN(c4ccncc4)CC5)cc32)c(C)cc1Cl` [G_CC-013, (1-(4-Chloro-2,5-dimethylphenylsulfonyl)indolin-6-yl)(9-(pyridin-4-yl)-3,9-diazaspiro[5.5]undecan-3-yl)methanone] in this work.

For `COc1cc(C)c(S(=O)(=O)N2CCCc3ccc(CC(=O)N4CCC5(CC4)CCN(c4ccncc4)CC5)cc32)c(C)c1` [G_CC-055, 2-[1-[(4-Methoxy-2,6-dimethyl-phenyl)sulfonyl]-1,2,3,4-tetrahydro-quinolin-7-yl]-1-(3-pyridin-4-yl-3,9-diazaspiro[5.5]undecan-9-yl)-ethanone], the “B1R antagonism, human [10 μM] % inhibition” value [1] was 96% and the “B1R antagonism, rat [10 μM] % inhibition” value [2] was 98%.

With `COc1cc(C)c(S(=O)(=O)N2CCCc3ccc(C(=O)N4CCC5(CC4)CCN(c4ccncc4)CC5)cc32)c(C)c1` [G_CC-056, [1-[(4-Methoxy-2,6-dimethyl-phenyl)sulfonyl]-1,2,3,4-tetrahydro-quinolin-7-yl]-(3-pyridin-4-yl-3,9-diazaspiro[5.5]undecan-9-yl)-methanone] the “B1R antagonism, human [10 μM] % inhibition” value [1] was 98% and the “B1R antagonism, rat [10 μM] % inhibition” value [2] was 100%.
